Biological target: T1, estrogen receptor-alpha (ERα) (Homo sapiens, UniProt P03372)
T1 sequence (P03372 311-547 limits assumed): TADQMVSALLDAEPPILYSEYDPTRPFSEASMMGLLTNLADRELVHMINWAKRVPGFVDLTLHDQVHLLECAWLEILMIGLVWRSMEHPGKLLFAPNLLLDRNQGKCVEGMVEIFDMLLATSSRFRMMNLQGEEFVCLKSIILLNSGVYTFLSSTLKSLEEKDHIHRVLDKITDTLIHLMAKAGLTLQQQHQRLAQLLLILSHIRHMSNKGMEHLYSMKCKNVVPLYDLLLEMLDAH
Experiment: fluorescence titration
Format: binding

- Kd: 10 nM
Compound: Cc1cc(O)cc2oc3cc(O)cc(O)c3c(=O)c12 [compound 1, norlichexanthone]
